This experiment has as its system reverse passive Arthus reaction. The experiment can be described thus: reverse passive Arthus reaction test in rats (anti-inflammatory effect, oral). It counts as in vivo, rat (male Sprague-Dawley). The following applies: 4 h, read-out: Percent Inhibition of Arthus Reaction; for inhibition in vivo at 25 mg/kg: oral dose 25 mg/kg. An excerpt:
The anti-inflammatory activity of the compounds of this invention was established using the reverse passive Arthus reaction in the rat as described by G. W. Carter and R. A. Krause in Federation Proceedings, Vol. 35, p. 774, 1976. The carrageenin rat paw edema test (Winter et al, Proc. Soc. Exp. Biol. Med., 111, 554, 1962) can be used to establish anti-inflammatory activity, however, unlike carrageenin induced edema, the Arthus reaction is a well characterized immune reaction which bears close resemblance to the pathogenisis of rheumatoid arthritis.
The Arthus reaction represents one of the oldest and best studied models of immunological injury. It is produced by the injection of antigen locally into a hyperimmunized animal or by the injection of a small amount of antibody into the skin of an animal that has just previously been given a large amount of soluble antigen intravenously. In both cases the antigen and antibody become deposited in the walls of small venules. Plasma complement is rapidly bound and activated. Within a few hours neutrophils (PMNs) accumulate, resulting in disruption of the basement membrane of vessel walls and marked edema and hemorrage in the surrounding tissue.
The reverse passive Arthus reaction test in rats is conducted as follows. Male Sprague-Dawley rats weighing approximately 130-160 g. are used, 4 rats per group. All animals are injected intravenously with 0.5 ml. 0.075% Bovine Serum Albumin (B.S.A.)+0.2% Evans Blue solution. Each rat then receives an oral dose of drug; one drug is administered per group.
Thirty minutes subsequent to drug dosing, each animal is injected intradermally with 0.05 ml. 1.44% Anti-B.S.A. into the dorsal skin. Four hours later the animals are sacrificed, the dorsal skin reflexed, and the lesion excised. Two perpendicular diameters of each lesion are measured. The average diameters of the lesions from the treated groups are compared with the average diameters from the control group to determine any drug effect.
The anti-inflammatory activity of representative compounds of this invention, as determined by the reverse passive Arthus reaction test in rats, is summarized in Table I.

Results on 21 compounds are retold here after patent US4171367A, “Pyrazolyl amino imidazolines” (Abbott Laboratories, priority 1977, dated 1979).

Structures can show the parent of a compound that is named as a salt. Where two headings read alike, the source gives them in different places.

For `CC(C)c1nn(C)c(NC2=NCCN2)c1Br` [R1=Me, R2=Me2CH, R3=Br, R4=H, 2(4-Bromo-3-isopropyl-1-methyl-5-pyrazolyl)amino-2-imidazoline hydrobromide], for the setting “Rattus norvegicus, po”, the inhibition in vivo at 50 mg/kg was found to be 37% and the inhibition in vivo at 100 mg/kg came to 42%.

As for `Brc1cnn(-c2ccccc2)c1NC1=NCCN1` [R1=C6H5, R2=H, R3=Br, R4=H, 2-(4-Bromo-1-phenyl-5-pyrazolyl)-amino-2-imidazoline hydrochloride], the inhibition in vivo at 25 mg/kg (rat) turned out to be 41%. Besides, the inhibition in vivo at 100 mg/kg (oral dose 100 mg/kg, rat) was 59%.

As to `CC(=O)N1CCN=C1Nc1cc(C(C)C)nn1C` [R1=Me, R2=Me2CH, R3=H, R4=COCH3, 1-Acetyl-2(3-isopropyl-1-methyl-5-pyrazolyl)amino-2-imidazoline], the inhibition in vivo at 100 mg/kg (oral dose 100 mg/kg, rat) was found to be 18%.

Regarding `Brc1cnn(C2CCCCC2)c1NC1=NCCN1` [R1=drawing 4, R2=H, R3=Br, R4=H, 2-(4-Bromo-1-cyclohexyl-5-pyrazolyl)-amino-2-imidazoline hydrochloride], the inhibition in vivo at 100 mg/kg (oral dose 100 mg/kg, rat) was 15%.

In the case of `c1ccc(-n2nccc2NC2=NCCN2)cc1` [R1=C6H5, R2=H, R3=H, R4=H, 2-(1-Phenyl-5-pyrazolyl)-amino-2-imidazoline], the inhibition in vivo at 25 mg/kg (rat) was found to be 62%. Besides, the inhibition in vivo at 100 mg/kg (oral dose 100 mg/kg, rat) came out at 75%.

Take `CC(C)c1cc(NC2=NCCN2)n(C(C)C)n1` [R1=Me2CH, R2=Me2CH, R3=H, R4=H, 2-(1,3-Di-isopropyl-5-pyrazolyl)-amino-2-imidazoline]: the inhibition in vivo at 100 mg/kg (oral dose 100 mg/kg, rat) is 11%.

In the case of `Cc1nn(CCC(C)C)c(NC2=NCCN2)c1Br` [R1=Me2CHCH2CH2, R2=Me, R3=Br, R4=H, 2[4-Bromo-1-(3-methylbutyl)-3-methyl-5-pyrazolyl]amino-2-imidazoline hydrochloride], the inhibition in vivo at 100 mg/kg (Rattus norvegicus, po) was determined as 16%.

With `CC(=O)N1CCN=C1Nc1c(C)nn(C)c1Cl` [R1=Me, R2=Me, R3=(5) C1, R4=COCH3, 1-acetyl-2-(5-chloro-1,3-dimethyl-4-pyrazolyl) amino-2-imidazoline hydrochloride], for the setting “rat”, the inhibition in vivo at 25 mg/kg was 39%. For the same compound, the inhibition in vivo at 100 mg/kg (oral dose 100 mg/kg, rat) is 63%.

With `Cc1cc(NC2=NCCN2)n(C)n1` [R1=Me, R2=Me, R3=H, R4=H, 2(1,3-Dimethyl-5-pyrazolyl) amino-b 2-imidazoline], the inhibition in vivo at 100 mg/kg (oral dose 100 mg/kg, rat) is 55%.

In the case of `Cc1nn(C)c(Cl)c1NC1=NCCN1` [R1=Me, R2=Me, R3=(5) (C1), R4=H, 2-(4-chloro-1,3-dimethyl-4-pyrazolyl)-amino-2-imidazoline hydrochloride], the inhibition in vivo at 10 mg/kg (oral dose 10 mg/kg, rat) worked out at 49%. Under “rat”, the inhibition in vivo at 25 mg/kg is 64%. Where the note is “oral dose 100 mg/kg, rat”, the inhibition in vivo at 100 mg/kg amounted to 69%.

`c1cc(NC2=NCCN2)n(C2CCCCC2)n1` [R1=drawing 5, R2=H, R3=H, R4=H, 2-(1-Cyclohexyl-5-pyrazolyl)-amino-2-imidazoline]: the inhibition in vivo at 100 mg/kg (oral dose 100 mg/kg, rat) is 15%.

As to `Cc1nn(C)c(NC2=NCCN2)c1Br` [R1=Me, R2=Me, R3=Br, R4=H, 2(4-Bromo-1,3-dimethyl-5-pyrazolyl)-amino-2-imidazoline], for the setting “oral dose 50 mg/kg, rat”, the inhibition in vivo at 50 mg/kg is 45%.

Turning to `c1ccc(-c2cc(NC3=NCCN3)n(-c3ccccc3)n2)cc1` [R1=C6H5, R2=C6H5, R3=H, R4=H, 2(1,3-Diphenyl-5-pyrazolyl) amino-2-imidazoline], the inhibition in vivo at 100 mg/kg (oral dose 100 mg/kg, rat) is 32%.

Consider `Cc1cc(NC2=NCCN2)n(CCC(C)C)n1` [R1=Me2CHCH2CH2, R2=Me, R3=H, R4=H, 2[1-(3-Methylbutyl)-3-methyl-5-pyrazolyl]amino-2-imidazoline], for which the inhibition in vivo at 100 mg/kg (Rattus norvegicus, po) was 15%.

For the compound `CC(C)c1nn(C(C)C)c(NC2=NCCN2)c1Br` [R1=Me2CH, R2=Me2CH, R3=Br, R4=H, 2-(4-Bromo-1,3-di-isopropyl-5-pyrazolyl)amino-2-imidazoline hydrobromide], where the note is “Rattus norvegicus, po”, the inhibition in vivo at 100 mg/kg was found to be 27%.

With `CC(C)c1cc(NC2=NCCN2)n(C)n1` [R1=Me, R2=Me2CH, R3=H, R4=H, 2(3-Isopropyl-1-methyl-5-pyrazolyl)-amino-2-imidazoline], where the note is “oral dose 50 mg/kg, rat”, the inhibition in vivo at 50 mg/kg was 33%. Further, the inhibition in vivo at 100 mg/kg (oral dose 100 mg/kg, rat) is 42%.

Regarding `CC(=O)N1CCN=C1Nc1ccnn1-c1ccccc1` [R1=C6H5, R2=H, R3=H, R4=COCH3, 1-Acetyl-2-(1-phenyl-5-pyrazolyl)-amino-2-imidazoline], the inhibition in vivo at 100 mg/kg (oral dose 100 mg/kg, rat) turned out to be 70%.

Consider `Brc1c(-c2ccccc2)nn(-c2ccccc2)c1NC1=NCCN1` [R1=C6H5, R2=C6H5, R3=Br, R4=H, 2(4-Bromo-1,3-diphenyl-5-pyrazolyl) amino-2-imidazoline hydrobromide], for which the inhibition in vivo at 100 mg/kg (oral dose 100 mg/kg, rat) was 17%.

Consider `Cc1nn(C)c(NC2=NCCN2)c1I` [R1=Me, R2=Me, R3=I, R4=H, 2(1,3-Dimethyl-4-iodo-5-pyrazolyl)-amino-2-imidazoline], for which the inhibition in vivo at 100 mg/kg (oral dose 100 mg/kg, rat) was determined as 43%.

For the compound `CC(=O)N1CCN=C1Nc1cc(C)nn1C(C)C` [R1=Me2CH, R2=Me, R3=H, R4=COCH3, 1-Acetyl-2(1-isopropyl-3-methyl-5-pyrazolyl)amino-2-imidazoline], the inhibition in vivo at 50 mg/kg (oral dose 50 mg/kg, rat) was determined as 30%. Moreover, the inhibition in vivo at 100 mg/kg (oral dose 100 mg/kg, rat) is 39%.

`Cc1cc(NC2=NCCN2)n(C(C)C)n1` [R1=Me2CH, R2=Me, R3=H, R4=H, 2-(1-Isopropyl-3-methyl-5-pyrazolyl)amino-2-imidazoline]: the inhibition in vivo at 50 mg/kg (oral dose 50 mg/kg, rat) came out at 20%. The inhibition in vivo at 100 mg/kg (oral dose 100 mg/kg, rat) is 29%.
